Reference: ChEMBL document CHEMBL4842334, “Tropolone-Bearing Sesquiterpenes from Juniperus chinensis: Structures, Photochemistry and Bioactivity” (2021)
The source made the active and inactive calls. No cut-off for these calls is given here.

Experiments:
[1] = tested on: HepG2; experiment: Inhibition of lipid accumulation in human HepG2 cells at 20 uM incubated for 24 hrs by Oil Red O staining analysis relative to oleic acid; assay type: functional
[2] = tested on: HepG2; experiment: Increase in glycerol release in human HepG2 cells at 25 uM incubated for 24 hrs by microplate reader analysis; assay type: functional, cell-based
[3] = biological target: T1, Tyrosinase (Agaricus bisporus) (UniProt O42713); experiment: Inhibition of mushroom tyrosinase activity at 5 uM measured after 1 hr by microplate reader analysis
T1 sequence (whole entry): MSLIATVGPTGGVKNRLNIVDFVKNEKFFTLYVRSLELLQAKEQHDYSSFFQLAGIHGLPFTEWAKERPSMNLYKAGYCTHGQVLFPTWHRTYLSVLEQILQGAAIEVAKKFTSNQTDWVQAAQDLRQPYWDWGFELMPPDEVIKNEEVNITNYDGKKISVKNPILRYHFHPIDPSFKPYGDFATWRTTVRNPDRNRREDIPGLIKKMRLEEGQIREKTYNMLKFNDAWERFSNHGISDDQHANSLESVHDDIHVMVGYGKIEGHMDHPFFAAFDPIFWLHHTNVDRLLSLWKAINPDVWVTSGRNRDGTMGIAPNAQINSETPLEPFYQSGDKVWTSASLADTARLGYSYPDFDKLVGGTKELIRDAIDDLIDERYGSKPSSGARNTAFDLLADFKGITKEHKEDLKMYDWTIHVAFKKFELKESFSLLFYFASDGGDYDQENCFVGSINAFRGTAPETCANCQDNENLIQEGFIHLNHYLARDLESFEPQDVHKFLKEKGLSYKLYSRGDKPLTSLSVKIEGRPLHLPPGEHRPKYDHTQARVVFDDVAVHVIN

[4] = tested on: Melan-a; experiment: Reduction in tyrosinase protein expression in mouse Melan-a cells at 5 uM measured after 72 hrs by Western blot analysis; assay type: functional, cell-based
[5] = tested on: Melan-a; experiment: Reduction in MITF protein expression in mouse Melan-a cells at 5 uM measured after 72 hrs by Western blot analysis; assay type: functional, cell-based
[6] = tested on: Melan-a; experiment: Reduction in TRP1 protein expression in mouse Melan-a cells at 5 uM measured after 72 hrs by Western blot analysis; assay type: functional, cell-based
[7] = Reduction in melanin production in mouse Melan-a cells at 5 uM measured after 72 hrs by microplate reader; assay type: functional

| inhibition [3] | SMILES | inhibition at 20 µM [1] [%] | Activity [2] | Activity [4] | Activity [5] | Activity [6] | inhibition at 5 µM [7] [%] |
| --- | --- | --- | --- | --- | --- | --- | --- |
| – | C/C(=C\CC1=C[C@@H]2C(=O)C(O)=C[C@]12C(C)C)CO | 29 | – | – | – | – | – |
| Active | C/C(=C\Cc1ccc(=O)c(O)cc1C(C)C)CO | 29 | Active | Active | Active | Active | 10 |
| – | C/C(=C\CC1=C[C@H]2C(=O)C(O)=C[C@@]12C(C)C)CO | 29 | – | – | – | – | – |
| – | C/C(=C\C[C@]12C=C[C@@]1(O)C(=O)C=C2C(C)C)CO | 29 | Active | – | – | – | – |
| – | C/C(=C\C[C@@]12C=C[C@]1(O)C(=O)C=C2C(C)C)CO | 29 | Active | – | – | – | – |
